Data taken from patent US11865195B2, “Evaluation of presence of and vulnerability to atrial fibrillation and other indications using matrix metalloproteinase-based imaging” (Lantheus Medical Imaging, Inc., priority 2011, dated 2024).
Like-named read-outs stand apart in the source and are kept apart here. Each block holds one compound with its values, some of them ahead of it.

Experiments:
MMPs = details: cited from earlier work; for selectivity for MMP-2 and MMP-9 over the other MMPs: derivatized alanine hydroxamates
activated MMPs = assay: MicroSPECT/CT imaging of aortic arch MMP activation in ApoE-/- mice under anti-lipid therapies; type: in vivo; details: 4 weeks of therapy; HFD group 4.99±0.27
Procedure: Methods: ApoE^−/− mice were fed a high fat diet (HFD) for 2 months to induce atherosclerosis. After two months, the mice were randomly assigned to one of 4 groups: HFD, HFD plus simvastatin (Sim), HFD plus fenofibrate (Fen) and high fat withdrawal (HFW). MicroSPECT/CT imaging using ^99mTc-RP805, a tracer with specificity for activated MMPs was performed after one week and 4 weeks.

[1] = Tissue biodistribution in the Oncomouse; type: in vivo, mice; details: tail vein injection, 1 h post-injection, mean±SEM
Procedure: Oncomice®, obtained through an in-house breeding program, were anesthetized intramuscularly with 0.1 mL of ketamine/acepromazine (1.8 mL saline, 1.0 mL ketamine, and 0.2 mL acepromazine) prior to dosing and tissue sampling. Individual mice were then injected via the tail vein with an imaging agent of the present invention (0.5-2.0 mCi/kg in 0.1 mL). Mice were euthanized and biodistribution performed at 1 h post-injection. Selected tissues were removed, weighed, and counted on a gamma counter. Results are expressed as the percentage of injected dose per gram tissue (mean±SEM; Table 3).

activated MMP-9 = target: T1, activated MMP-9 (Homo sapiens, UniProt P14780); assay: In-vitro MMP inhibition assay (fluorogenic peptide substrate); type: biochemical; details: 1 h at 27° C., triplicate
T1 construct: purchased R&D Systems
Procedure: (§1) Individual inhibitors were dissolved in TCN buffer (50 mM Tris-HCl, 10 mM CaCl2, 150 mM […], 0.05% Brij 35 at pH 7.5) at appropriate dilutions then added to the wells of a microtiter plate (10 μL/well) in triplicate. Each well of test agent (and appropriate control wells) was then treated with activated MMP-2 or 9 (10 μL of a 40 nM solution in 50 mM Hepes, 10 mM CaCl2), 1% Brij 35 at pH 7.5; R&D Systems) followed by 30 μL TCN buffer and 150 μL the fluorogenic peptide substrate (Mca-PLGL-Dpa-AR-NH2; R&D Systems). The resulting mixtures were incubated 1 h at 27° C. then analyzed using a FL600 fluorescent plate reader (excitation=310/20; emission=420/50; optics=bottom; sensitivity=225) and KC4 Software.

activated MMP-2 = target: T2, activated MMP-2 (Homo sapiens, UniProt P08253); assay: as above; type: biochemical; details: 1 h at 27° C., triplicate
T2 construct: purchased R&D Systems
T2 sequence (P08253 110-660): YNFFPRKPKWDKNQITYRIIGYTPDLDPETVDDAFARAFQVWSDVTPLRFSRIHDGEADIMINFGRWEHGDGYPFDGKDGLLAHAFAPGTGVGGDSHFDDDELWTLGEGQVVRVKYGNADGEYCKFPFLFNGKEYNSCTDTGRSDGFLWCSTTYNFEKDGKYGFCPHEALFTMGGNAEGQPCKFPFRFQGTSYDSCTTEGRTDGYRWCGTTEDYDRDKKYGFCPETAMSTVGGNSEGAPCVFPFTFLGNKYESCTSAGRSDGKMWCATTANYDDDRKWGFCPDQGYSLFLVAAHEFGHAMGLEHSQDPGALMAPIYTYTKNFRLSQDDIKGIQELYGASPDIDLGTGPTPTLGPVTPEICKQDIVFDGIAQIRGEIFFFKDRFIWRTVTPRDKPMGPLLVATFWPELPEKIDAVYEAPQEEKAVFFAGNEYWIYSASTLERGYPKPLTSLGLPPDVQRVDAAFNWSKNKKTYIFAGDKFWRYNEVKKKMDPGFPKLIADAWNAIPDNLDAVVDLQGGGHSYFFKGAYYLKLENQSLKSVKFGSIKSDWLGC
Procedure: as §1

T1 sequence (P14780 107-707 limits assumed): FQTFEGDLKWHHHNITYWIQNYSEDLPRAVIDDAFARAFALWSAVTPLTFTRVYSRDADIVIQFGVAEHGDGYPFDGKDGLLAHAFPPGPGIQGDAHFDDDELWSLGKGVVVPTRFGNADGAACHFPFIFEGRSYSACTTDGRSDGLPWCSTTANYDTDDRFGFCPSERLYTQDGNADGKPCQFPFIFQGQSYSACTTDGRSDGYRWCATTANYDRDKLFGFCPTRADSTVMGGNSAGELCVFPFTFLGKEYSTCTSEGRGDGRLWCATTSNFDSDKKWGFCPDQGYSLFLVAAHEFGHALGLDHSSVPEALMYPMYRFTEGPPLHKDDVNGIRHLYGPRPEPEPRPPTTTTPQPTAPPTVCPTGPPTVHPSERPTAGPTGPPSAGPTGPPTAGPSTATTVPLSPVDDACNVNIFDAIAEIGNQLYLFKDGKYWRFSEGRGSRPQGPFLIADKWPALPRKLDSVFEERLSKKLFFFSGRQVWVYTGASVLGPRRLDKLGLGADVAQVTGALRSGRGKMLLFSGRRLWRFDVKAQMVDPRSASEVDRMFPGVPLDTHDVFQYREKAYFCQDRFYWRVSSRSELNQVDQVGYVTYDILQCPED

SMILES: C[C@H](C(=O)NO)N1CCNc2cc(OCc3ccccc3)ccc2S1(=O)=O [1-12]
selectivity for MMP-2 and MMP-9 over the other MMPs (MMPs): show selectivity

SMILES: COc1ccc(Oc2ccc([C@]3(C)CCN([C@H](C)C(=O)NO)C3=O)cc2)cc1OC [1-11]
selectivity for MMP-2 and MMP-9 over the other MMPs (MMPs): show selectivity

SMILES: CC(C)OC(=O)C(C)(C)Oc1ccc(C(=O)c2ccc(Cl)cc2)cc1 [fenofibrate]
99mTc-RP805 uptake in the aortic arch under HFD plus anti-lipid drug (activated MMPs): 2.23±0.28 counts per voxel per mCi injected dose

Imaging agent distribution, blood [1]: 1.07 ± 0.060 % ID/g
Imaging agent distribution, bone [1]: 2.02 ± 0.320 % ID/g
Imaging agent distribution, heart [1]: 0.95 ± 0.065 % ID/g
Imaging agent distribution, kidney [1]: 20.6 ± 3.25 % ID/g
Imaging agent distribution, liver [1]: 13.1 ± 2.17 % ID/g
Imaging agent distribution, lung [1]: 0.97 ± 0.121 % ID/g
Imaging agent distribution, muscle [1]: 0.50 ± 0.073 % ID/g
Imaging agent distribution, spleen [1]: 0.69 ± 0.085 % ID/g
Imaging agent distribution, tumor [1]: 0.95 ± 0.103 % ID/g
Imaging agent distribution, urine [1]: 71.8 % ID/g
IC50 (activated MMP-9): 20.2 nM
IC50 (activated MMP-2): 31.6 nM
SMILES: CC(C)C[C@H]1C(=O)N[C@H](C(=O)NCCCCCCF)Cc2ccc(cc2)OCCC[C@@H]1C(=O)NO [Imaging Agent 2]

SMILES: O=C(NO)C1CCCN[C@@H]1C(=O)N1CCC(c2ccccc2)CC1 (stereo partly drawn) [1-8]
inhibition of MMPs (MMPs; succinyl hydroxamate with modified P2' and P3' positions): potent inhibition

SMILES: CCCCCCCCC[C@H](CC(=O)NO)C(=O)N[C@H](C(=O)NC)C(C)(C)C [1-5]
selectivity for MMP-2 over MMP-1 and MMP-3 (MMPs; long alkyl substituent at P1' position): imparts selectivity

IC50 (activated MMP-9): 2.59 nM
IC50 (activated MMP-2): 4.61 nM
SMILES: CC(C)C[C@H]1C(=O)N[C@H](C(=O)NCC(=O)NCCCF)Cc2ccc(cc2)OCCC[C@@H]1C(=O)NO [Imaging Agent 3]

SMILES: CCC(C)(C)C(=O)O[C@H]1C[C@@H](C)C=C2C=C[C@H](C)[C@H](CC[C@@H]3C[C@@H](O)CC(=O)O3)[C@H]21 [simvastatin]
99mTc-RP805 uptake in the aortic arch under HFD plus anti-lipid drug (activated MMPs): 3.17±0.52 counts per voxel per mCi injected dose

IC50 (activated MMP-9): 3.54 nM
IC50 (activated MMP-2): 5.19 nM
SMILES: CC(C)C[C@H]1C(=O)N[C@H](C(=O)NCCCF)Cc2ccc(cc2)OCCC[C@@H]1C(=O)NO [Imaging Agent 1]

Imaging agent distribution, blood [1]: 0.88 ± 0.061 % ID/g
Imaging agent distribution, bone [1]: 2.86 ± 0.124 % ID/g
Imaging agent distribution, heart [1]: 0.69 ± 0.073 % ID/g
Imaging agent distribution, kidney [1]: 6.66 ± 1.46 % ID/g
Imaging agent distribution, liver [1]: 11.3 ± 1.73 % ID/g
Imaging agent distribution, lung [1]: 1.69 ± 0.382 % ID/g
Imaging agent distribution, muscle [1]: 0.44 ± 0.049 % ID/g
Imaging agent distribution, spleen [1]: 0.81 ± 0.021 % ID/g
Imaging agent distribution, tumor [1]: 0.73 ± 0.026 % ID/g
Imaging agent distribution, urine [1]: 7.21 ± 6.71 % ID/g
IC50 (activated MMP-9): 2.98 nM
IC50 (activated MMP-2): 2.74 nM
SMILES: CC(C)C[C@H]1C(=O)N[C@H](C(=O)NCc2ccc(OCCCF)cc2)Cc2ccc(cc2)OCCC[C@@H]1C(=O)NO [Imaging Agent 6]

SMILES: CNC(=O)[C@@H]1Cc2ccc(cc2)OCCC[C@H](C(=O)NO)[C@@H](CC(C)C)C(=O)N1 [1-6]
activity against MMPs (MMPs; macrocyclic succinyl hydroxamate): nanomolar activity

SMILES: O=C(NO)C1(CS(=O)(=O)c2ccc(Oc3ccc(Cl)cc3)cc2)CCOCC1 [1-13]
selectivity for MMP-2 and MMP-9 over MMP-1 (MMPs): selectivity

SMILES: CCCCCCC[C@H](CC(=O)CS)C(=O)N[C@H](C(=O)NC)C(C)(C)C [1-15]
activity against MMPs (MMPs; succinyl thiol): good activity

Imaging agent distribution, blood [1]: 0.41 ± 0.099 % ID/g
Imaging agent distribution, bone [1]: 1.28 ± 0.200 % ID/g
Imaging agent distribution, heart [1]: 0.36 ± 0.064 % ID/g
Imaging agent distribution, kidney [1]: 14.8 ± 1.79 % ID/g
Imaging agent distribution, liver [1]: 23.6 ± 5.19 % ID/g
Imaging agent distribution, lung [1]: 0.45 ± 0.071 % ID/g
Imaging agent distribution, muscle [1]: 0.17 ± 0.043 % ID/g
Imaging agent distribution, spleen [1]: 0.34 ± 0.057 % ID/g
Imaging agent distribution, tumor [1]: 1.12 ± 0.204 % ID/g
Imaging agent distribution, urine [1]: 7.67 ± 5.00 % ID/g
IC50 (activated MMP-9): 15.3 nM
IC50 (activated MMP-2): 15.4 nM
SMILES: CC(C)C[C@H]1C(=O)N[C@H](C(=O)NCC(=O)NCCCCCF)Cc2ccc(cc2)OCCC[C@@H]1C(=O)NO [Imaging Agent 4]

IC50 (activated MMP-9): 0.74 nM
IC50 (activated MMP-2): 0.58 nM
SMILES: CC(C)C[C@H]1C(=O)N[C@H](C(=O)NCc2ccc(F)cc2)Cc2ccc(cc2)OCCC[C@@H]1C(=O)NO [Imaging Agent 5]
